Tests used:
[1] = test system: patients who underwent refractive surgery; assay: double-masked randomized clinical trial on night sight problems (halos, coma, glare) after refractive surgery; format: in vivo, human
Experimental: A double-masked randomized clinical trial with 14 patients (27 eyes) has been organized by dividing the patients in three different groups: 8 patients were treated with placebo, 10 patients were treated with a first ophthalmic composition (I dilution), 9 patients were treated with a second ophthalmic composition (II dilution).
The patients belonging to this trial had to go through an ophthalmic examination: of the haze grading and of natural and corrected visual acuity, intra ocular pressure (IOP), pupillometry in mesopic conditions with split lamp and examination of corneal maps. The anamnestic data about the surgical operation were collected: the refractive surgery technique employed (PRK/LASIK), the date of the surgical operation, data about the corrected optical zone and the ametropy kind. The night sight problems had to be stable for at least three months after the surgical operation for the patient to be included in the trial.
The patients had to identify the image they perceived before and during the pharmacological treatment, with follow-up examinations fixed every 15-30 days. At the end of the clinical trial the patients had to provide information about the efficacy and duration (in terms of hours) of the treatment, onset time of the effect, changes of the visual capabilities and side effects, if any.
The ophthalmic compositions were prepared according to the following procedure:
I dilution, 4 IU of aceclidine 2% were diluted in 5 mL of hyaluronic acid (0.200 g/100 mL)
II dilution, 8 IU of aceclidine 2% were diluted in 5 mL of hyaluronic acid (0.200 g/100 mL)
Placebo consisted in 5 mL of hyaluronic acid (0.200 g/100 mL).
The three ophthalmic compositions (I dilution, II dilution and placebo) were administered to the 14 patients belonging to the clinical trial in a blind way.

[2] = test system: healthy people; assay: pupillary diameter after instillation in healthy people; format: in vivo, human; conditions: ophthalmic composition with aceclidine in very low concentrations, for four to six hours (summary statement)
Experimental: The two ophthalmic compositions, I and II dilution, were administered firstly to a group of healthy people: one eye was treated with the I dilution composition (0.016%), the second eye with the II dilution composition (0.032%), measuring the pupillary diameter in the same light conditions at 30 minutes, 1-2-3-4-5-6 hours after the first instillation.

[3] = patients treated with refractive surgery, aceclidine in very low concentrations (summary statement)

## CC(=O)OC1CN2CCC1CC2 (stereo not drawn) [aceclidine, 3-acetoxyquinuclidine]
[1]; aceclidine 0.016% to 0.040% of total weight
  side effects in the effective concentration range: no relevant side effects are detectable
[1]; aceclidine 0.016% to 0.040%, instilled 10-20 minutes before need (summary statement)
  duration of action after instillation: 4 to 6 h
[1]; [3]
  duration of light, transitory conjunctival hyperemia: 5 to 10 min
  headache or sight reduction: no headache or sight reduction
  improvement of halos, coma and glare: statistically significant improvement
[2]
  pupil diameter reduction: 2-3 mm

Reference: US20040106644A1, “Composition for treatment of night sight problems(halos, comas and glare) after refractive surgery, intra ocular lens implant after lensectomy or intraocular implant in phakic patients comprising aceclidine employed at low concentrations” (priority 2001, published 2004)
